Literature values in patent US20250019715A1, “Ribosomal Biosynthesis Of Moroidin Peptides In Plants” (Whitehead Institute for Biomedical Research, priority 2021, published 2025).
Ends that are not written are not given here.

Experiments:
[1] = system: pain sensation; conditions: isolated as pain-causing agent from Dendrocnide moroides
[2] = system: tubulin polymerization; conditions: qualitative statement from prior knowledge

Row | Molecule | pain-causing activity [1] | inhibitory activity against tubulin polymerization [2]
1 | CC(C)C[C@@H]1NC(=O)[C@@H](NC(=O)[C@@H]2CCC(=O)N2)[C@@H](C(C)C)c2ccc3c4c([nH]c3c2)-n2cnc(c2)C[C@@H](C(=O)O)NC(=O)CNC(=O)[C@H](CCCN=C(N)N)NC(=O)[C@H](C4)NC(=O)[C@H](C(C)C)NC1=O [moroidin] | pain-causing agent | potent inhibitory activity
2 | celogentin C (QLLVWPRH; bridge (positions not given here); also: bicyclic crosslinks, places not given here) [moroidin structural analog from Celosia argentea, core peptide QLLVWPRH] |  | potent inhibitory activity
